{"source": "patent US8637312B2", "about": "“Mammalian culture media with polyamine and iron” (Cellca GmbH, priority 2008, dated 2014)", "key": {"CHO DG44 host cell line [1]": {"system": "CHO DG44 host cell line", "test": "High cell density fed-batch culture of antibody producing CHO clone, cell growth", "assay_type": "cell-based, Chinese hamster", "settings": "for effect of spermine and iron together on cell growth: Example 1, FIG. 1, both at high concentration, feed media polyamine and iron free; for requirement for optimal cell growth: Example 6, FIG. 6, spermine with iron (III) citrate, iron (III) citrate supplemented at day 6 to 400 mg/l", "description": "(§1) For all experiments a CHO DG44 host cell line (Urlaub and Chasin, Proc. Natl. Acad. Sci. USA, 1980, 77: 4216) was used. This host cell line was transfected with a vector carrying the gene of an IgG antibody. Transfectants were amplified using MTX in culture medium. An antibody producing clone was isolated and this clone was then used for all experiments.\n(§2) Stock culture cells were kept in a shake flask or in a spinner flask. The stock culture was split into fresh culture medium every two or three days. That means, a small amount of cell culture was used as inoculum and transferred into a new flask and supplemented with fresh culture medium. Cells were cultured at 37° C. in CO2 atmosphere in an incubator. In this way cells were cultured in several passages. One passage is defined as a culture duration of 2-4 days. At different time points inoculum cells were taken from the stock culture and experiments were performed in various scales, for examples in 6-well plates, shake flasks, T-flasks, spinner flasks and bioreactors.\nA basal medium as follows (in the following also termed proprietary culture medium) was used for cultivation of cells in all steps, e.g. in the stock culture, in the culture expansion step and in the production step. The basal medium contains all necessary substances for cell growth, cell viability and cellular productivity. The basal medium contains glucose at 1.0-6.0 g/l, NaCl 2.8-6.2 g/l, KCl 273-945 mg/l, CaCl2 48-290 mg/l, MgCl2 42-330 mg/l, NaH2PO4 56-1130 mg/l, Arginine 56-930 mg/l, Asparagine 44-900 mg/l, Aspartic acid 26-445 mg/l, Cysteine 35-270 mg/l, Glutamic acid 44-900 mg/, Glutamine 44-900 mg/l, Glycine 18-180 mg/l, Histidine 42-670 mg/l, Isoleucine 54-877 mg/l, Leucine 59-1250 mg/l, Lysine 73-1120 mg/l, Methionine 9-454 mg/l, Phenylalanine 35-677 mg/l, Proline 17-828 mg/l, Serine 26-1339 mg/l, Threonine 24-989 mg/l, Tryptophane 9-441 mg/l, Tyrosine 55-565 mg/l, Valine 52-787 mg/l, NaHCO3 2,4 g/l. The basal medium further comprises fatty acids and nucleotides. In all batch and fed-batch experiments the same proprietary culture medium and proprietary feed medium were used, unless otherwise stated. The feed medium used in fed-batch experiments (in the following also termed “proprietary feed medium”) has all necessary substances for cell growth, cell viability and cellular productivity, in particular salts, trace elements, carbohydrates, amino acids, fatty acids, pH regulator, nucleotides. Even though here a rich feed medium is used containing above mentioned substances, feed media must not comprise all of these components. Feed media consisting of one or more of above mentioned substances are suitable also. Both basal medium and feed medium are serum free, protein free, peptone free and peptide free. However, supplementation of media with one or more of above mentioned additives is possible. Thus, both media are chemically defined, consisting of only single, fully defined chemicals.\nExperiments were performed either in batch or in fed-batch modus. If an experiment was designed for fed-batch modus, it was started by inoculating the flask with stock culture cells in the production medium (culture medium). Culture flasks were inoculated with an inoculation cell density of 2 to 4×10^5 viable cells per millilitre. Cells were cultured for 1 to 4 days. The culture was supplemented thereafter with a feed medium for first time. Feeding was done batch wise every 1 to 3 days. Feeding the culture with feed medium was performed batch wise (bolus addition). Feeding of culture can also be done continuously, especially in bioreactors. In fed-batch experiments two different feed media were used. However, it is possible to use one or more than two different feed media. The culture was incubated as long as the cell viability was greater than 50%. Thus, culture duration was approximately 10 to 18 days. Every day samples were taken from cultures and analytical processes were done, such as cell count and metabolite measurements. […]"}, "CHO DG44 host cell line [2]": {"system": "CHO DG44 host cell line", "test": "Batch culture of antibody producing CHO clone, cell growth", "assay_type": "cell-based, Chinese hamster", "settings": "for effect of spermine and iron together on cell concentration: Example 5, FIG. 5, spermine with iron (III) nitrate nonahydrate, both at high concentration", "description": "as §1, §2\nA basal medium as follows (in the following also termed proprietary culture medium) was used for cultivation of cells in all steps, e.g. in the stock culture, in the culture expansion step and in the production step. The basal medium contains all necessary substances for cell growth, cell viability and cellular productivity. The basal medium contains glucose at 1.0-6.0 g/l, NaCl 2.8-6.2 g/l, KCl 273-945 mg/l, CaCl2 48-290 mg/l, MgCl2 42-330 mg/l, NaH2PO4 56-1130 mg/l, Arginine 56-930 mg/l, Asparagine 44-900 mg/l, Aspartic acid 26-445 mg/l, Cysteine 35-270 mg/l, Glutamic acid 44-900 mg/, Glutamine 44-900 mg/l, Glycine 18-180 mg/l, Histidine 42-670 mg/l, Isoleucine 54-877 mg/l, Leucine 59-1250 mg/l, Lysine 73-1120 mg/l, Methionine 9-454 mg/l, Phenylalanine 35-677 mg/l, Proline 17-828 mg/l, Serine 26-1339 mg/l, Threonine 24-989 mg/l, Tryptophane 9-441 mg/l, Tyrosine 55-565 mg/l, Valine 52-787 mg/l, NaHCO3 2,4 g/l. The basal medium further comprises fatty acids and nucleotides. In all batch and fed-batch experiments the same proprietary culture medium and proprietary feed medium were used, unless otherwise stated. The feed medium used in fed-batch experiments (in the following also termed “proprietary feed medium”) has all necessary substances for cell growth, cell viability and cellular productivity, in particular salts, trace elements, carbohydrates, amino acids, fatty acids, pH regulator, nucleotides. Even though here a rich feed medium is used containing above mentioned substances, feed media must not comprise all of these components. Feed media consisting of one or more of above mentioned substances are suitable also. Both basal medium and feed medium are serum free, protein free, peptone free and peptide free. […]"}, "[3]": {"system": "BHK (baby hamster kidney) cells", "settings": "adherent growing BHK cells, serum containing medium; Brunton et al. 1991; cited from earlier work"}, "[4]": {"system": "CHO (Chinese hamster ovary) cells", "settings": "10 μM ferric iron plus spermine 0 to 100 μM, serum containing medium; Gaboriau et al. 2004; cited from earlier work"}, "[5]": {"settings": "oligopeptide-free medium; WO 2007/077217; cited from earlier work"}, "rat hepatoma cells": {"system": "rat hepatoma cells", "settings": "100 μM in culture medium; Itoh et al. 1994; cited from earlier work"}, "[6]": {"settings": "Example 8, FIG. 8, in the presence of spermine"}}}
{"molecule": "NCCCNCCCCNCCCN", "note": "[spermine]", "values": [{"measurement": "effect of spermine and iron together on cell growth", "setting": "CHO DG44 host cell line [1]", "value": "synergistic effect"}, {"measurement": "cell growth with increasing spermine concentration", "setting": "CHO DG44 host cell line [1]; Example 3, FIG. 3, 100 mg/l iron (III) pyrophosphate hydrate in medium, 800 mg/l in feed", "value": "grow better"}, {"measurement": "requirement for optimal cell growth", "setting": "CHO DG44 host cell line [1]", "value": "required"}, {"measurement": "effect of spermine on cell growth", "setting": "CHO DG44 host cell line [1]; Example 7, FIG. 7, iron (III) citrate as iron source, feed 3200 mg/l iron (III) citrate", "value": "positive effect"}, {"measurement": "effect of spermine on cell growth", "setting": "CHO DG44 host cell line [1]; Example 8, FIG. 8, iron (III) phosphate as iron source, feed 800 mg/l iron (III) phosphate", "value": "positive effect"}, {"measurement": "effect of spermine and iron together on cell concentration", "setting": "CHO DG44 host cell line [2]", "value": "synergistic effects"}, {"measurement": "toxicity to cells", "setting": "[3]", "value": "toxic"}, {"measurement": "number of viable cells", "setting": "[4]", "value": "decreases the number of viable cells in a dose-dependent manner"}, {"measurement": "cellular productivity on increasing concentration above 2 mg/l", "setting": "[5]", "value": "does not significantly increase"}]}
{"molecule": "[Fe+2]", "note": "[ferrous (Fe^2+)]", "values": [{"measurement": "mitochondrial DNA damage", "setting": "rat hepatoma cells", "value": "damaged"}]}
{"molecule": "NCCCCNCCCN", "note": "[spermidine]", "values": [{"measurement": "cell concentration reached", "setting": "CHO DG44 host cell line [2]; Example 2, FIG. 2, 100 mg/l iron (III) pyrophosphate hydrate, with versus without spermidine", "value": "higher concentration"}, {"measurement": "toxicity of spermidine", "setting": "CHO DG44 host cell line [2]; Example 2, FIG. 2, tested high concentrations, 100 mg/l iron (III) pyrophosphate hydrate", "value": "not visible"}]}
{"molecule": "O=C([O-])CC(O)(CC(=O)[O-])C(=O)[O-].[Fe+3]", "note": "[iron (III) citrate]", "values": [{"measurement": "requirement for optimal cell growth", "setting": "CHO DG44 host cell line [1]", "value": "required"}]}
{"molecule": "NCCCCN", "note": "[putrescine]", "values": [{"measurement": "efficiency among amines in promoting cell specific productivity", "setting": "[5]", "value": "most efficient amine"}]}
{"molecule": "iron", "values": [{"measurement": "need of iron for cell growth", "setting": "CHO DG44 host cell line [1]; Example 1, FIG. 1", "value": "essential"}, {"measurement": "effect of spermine and iron together on cell growth", "setting": "CHO DG44 host cell line [1]", "value": "synergistic effect"}]}
{"molecule": "O.O.O.O.O.O.O.O.O.O=[N+]([O-])[O-].O=[N+]([O-])[O-].O=[N+]([O-])[O-].[Fe+3]", "note": "[iron (III) nitrate nonahydrate]", "values": [{"measurement": "effect of spermine and iron together on cell concentration", "setting": "CHO DG44 host cell line [2]", "value": "synergistic effects"}]}
{"molecule": "[Fe+3]", "note": "[ferric (Fe^3+) iron]", "values": [{"measurement": "mitochondrial DNA damage", "setting": "rat hepatoma cells", "value": "damaged"}]}
{"molecule": "O=P([O-])([O-])[O-].[Fe+3]", "note": "[iron (III) phosphate]", "values": [{"measurement": "effect of high iron concentration on cell growth", "setting": "CHO DG44 host cell line [1]; [6]", "value": "promotes cell growth"}, {"measurement": "toxicity of high iron concentration to the cells", "setting": "CHO DG44 host cell line [1]; [6]", "value": "not toxic"}]}
{"molecule": "iron dextran", "values": [{"measurement": "effect of high iron concentration on cell growth", "setting": "CHO DG44 host cell line [1]; Example 9, FIG. 9, 40 mg/l spermine, iron dextran fed at day 6 to 250 mg/l", "value": "promotes cell growth"}]}
